Converted amounts (≈) assume the structure as drawn.
Tests used:
[1] = system: S. aureus ATCC 106414 (VISA); assay: MIC microdilution (Table I-1); assay type: cell-based, Staphylococcus aureus; conditions: Staphylococcus aureus, read after 18 hours, read-out: MIC
Protocol: (§1) The microdilution method recommended by the Clinical and Laboratory Standard Institute [M07-A8, Vol. 29, N^o 2] was used. The activity of indolic compounds was tested against 29 bacterial strains belonging to 17 different species and 12 different genera (Staphylococcus, Streptococcus, Enterococcus, Listeria, Bacillus, Haemophilus, Escherichia, Klebsiella, Enterobacter, Serratia, Pseudomonas, and Acinetobacter). Bacterial inocula were prepared in Mueller Hinton broth (MH2, bioMerieux, Marcy L'Etoile, France), supplemented with 10% sheep blood for fastidious species (i.e., Streptococcus pneumoniae and Haemophilus influenzae). They were dispensed in 96 well microtiter plates (5×10^5 CFU/ml of final inoculum). Indolic compounds were added to the wells as to obtain two-fold serial concentrations (0.50-128 mg/L of final concentrations). Plates were incubated at 37° C. in ambient air, or at 37° C. in 5% CO2 enriched atmosphere for fastidious species. […] Drug-free cultures served as growth controls. Cultures receiving gentamicin, ciprofloxacin or cefotaxime served as positive controls.

[2] = system: S. aureus ATCC 29213; assay: MIC microdilution (Table I-1); assay type: cell-based, Staphylococcus aureus; conditions: Staphylococcus aureus, ATCC29213, read after 18 hours, read-out: MIC
Protocol: as §1

[3] = system: S. aureus ATCC 33592 (MRSA); assay: MIC microdilution (Table I-1); assay type: cell-based, Staphylococcus aureus; conditions: Staphylococcus aureus, read after 18 hours, read-out: MIC
Protocol: as §1

[4] = system: S. aureus ATCC 6538; assay: MIC microdilution (Table I-1); assay type: cell-based, Staphylococcus aureus; conditions: Staphylococcus aureus, ATCC6538, read after 18 hours, read-out: MIC
Protocol: as §1

[5] = system: S. aureus ATCC 9144; assay: MIC microdilution (Table I-1); assay type: cell-based, Staphylococcus aureus; conditions: Staphylococcus aureus, ATCC9144, read after 18 hours, read-out: MIC
Protocol: as §1

[6] = system: S. aureus CIP 103428; assay: MIC microdilution (Table I-1); assay type: cell-based, Staphylococcus aureus; conditions: Staphylococcus aureus, CIP103428, read after 18 hours, read-out: MIC
Protocol: as §1

[7] = system: S. aureus CIP 65.25 (MRSA); assay: MIC microdilution (Table I-1); assay type: cell-based, Staphylococcus aureus; conditions: Staphylococcus aureus, read after 18 hours, read-out: MIC
Protocol: as §1

[8] = system: S. aureus CIP 65.6; assay: MIC microdilution (Table I-1); assay type: cell-based, Staphylococcus aureus; conditions: Staphylococcus aureus, CIP65, read after 18 hours, read-out: MIC
Protocol: as §1

[9] = system: S. aureus SA-1199B; assay: MIC microdilution (Table I-1); assay type: cell-based, Staphylococcus aureus; conditions: Staphylococcus aureus, SA1199B, 18 h
Protocol: as §1

[10] = system: S. epidermidis ATCC 12228; assay: MIC microdilution (Table I-1); assay type: cell-based, Staphylococcus epidermidis; conditions: Staphylococcus epidermidis, ATCC12228, read after 18 hours, read-out: MIC
Protocol: as §1

[11] = system: S. epidermidis CIP 103627; assay: MIC microdilution (Table I-1); assay type: cell-based, Staphylococcus epidermidis; conditions: Staphylococcus epidermidis, CIP103627, read after 18 hours, read-out: MIC
Protocol: as §1

[12] = system: S. epidermidis CIP 81.55; assay: MIC microdilution (Table I-1); assay type: cell-based, Staphylococcus epidermidis; conditions: Staphylococcus epidermidis, CIP81, read after 18 hours, read-out: MIC
Protocol: as §1

[13] = system: Acinetobacter baumanii ATCC 19606; assay: MIC microdilution (Table I-1); assay type: cell-based; conditions: Acinetobacter baumannii, ATCC19606, read after 18 hours
Protocol: as §1

[14] = system: Bacillus subtilis CIP 5262; assay: MIC microdilution (Table I-1); assay type: cell-based; conditions: CIP5262, read after 18 hours, read-out: MIC
Protocol: as §1

[15] = system: E. faecium CIP 54.32; assay: MIC microdilution (Table I-1); assay type: cell-based; conditions: Enterococcus faecium, CIP54, read after 18 hours, read-out: MIC
Protocol: as §1

[16] = system: Enterobacter cloacae ATCC 13047; assay: MIC microdilution (Table I-1); assay type: cell-based; conditions: ATCC13047, read after 18 hours
Protocol: as §1

[17] = system: Escherichia coli ATCC 25922; assay: MIC microdilution (Table I-1); assay type: cell-based; conditions: ATCC25922, read after 18 hours
Protocol: as §1

[18] = system: Haemophilus influenzae ATCC 49766; assay: MIC microdilution (Table I-1); assay type: cell-based; conditions: ATCC49766; Haemophilus influenzae ATCC 49766; read after 18 hours; read-out: MIC
Protocol: as §1

[19] = system: Listeria innocua CIP 80.11; assay: MIC microdilution (Table I-1); assay type: cell-based; conditions: CIP80, read after 18 hours, read-out: MIC
Protocol: as §1

[20] = system: Pseudomonas aeruginosa CIP 5933; assay: MIC microdilution (Table I-1); assay type: cell-based; conditions: CIP5933, read after 18 hours
Protocol: as §1

[21] = system: S. aureus ATCC 25923; assay: MIC microdilution (Table I-1); assay type: cell-based; conditions: Staphylococcus aureus, ATCC25923, read after 18 hours
Protocol: as §1

[22] = system: S. mitis CIP 103335; assay: MIC microdilution (Table I-1); assay type: cell-based; conditions: Streptococcus mitis, CIP103335, read after 18 hours, read-out: MIC
Protocol: as §1

[23] = system: S. pyogenes (group A) CIP 104226; assay: MIC microdilution (Table I-1); assay type: cell-based; conditions: Streptococcus pyogenes, CIP104226, read after 18 hours, read-out: MIC
Protocol: as §1

[24] = system: Serratia marcescens CIP 103551; assay: MIC microdilution (Table I-1); assay type: cell-based; conditions: CIP103551, read after 18 hours
Protocol: as §1

[25] = system: S. pneumoniae ATCC 6303; assay: MIC microdilution (Table I-1); assay type: cell-based, Streptococcus pneumoniae; conditions: Streptococcus pneumoniae, ATCC6303, read after 18 hours, read-out: MIC
Protocol: as §1

[26] = system: HCT116 (human colon tumor); assay: In vitro cytotoxicity; assay type: cell-based; conditions: for inhibition at 10 µM: HCT-116, HCT116, 10^−5 M, read-out: % of cellular growth inhibition; for inhibition at 1 µM: HCT-116, HCT116, 10^−6 M, read-out: % of cellular growth inhibition (converted)
Protocol: (§2) In vitro cytotoxicity was assayed on three cell lines—KB (human mouth carcinoma), MCR5 (human lung fibroblast) and HCT116 (human colon tumor). Results are presented in table III as % of cellular growth inhibition in presence of 10^−5 M and 10^−6 M of the tested bis-indolic derivatives.

[27] = system: KB (human mouth carcinoma); assay: In vitro cytotoxicity; assay type: cell-based; conditions: KB; for inhibition at 10 µM: 10^−5 M, read-out: % of cellular growth inhibition; for inhibition at 1 µM: 10^−6 M, read-out: % of cellular growth inhibition (converted)
Protocol: as §2

[28] = system: MRC5 (human lung fibroblast); assay: In vitro cytotoxicity; assay type: cell-based; conditions: for inhibition at 10 µM: MRC5, 10^−5 M, read-out: % of cellular growth inhibition; for inhibition at 1 µM: MRC5, 10^−6 M, read-out: % of cellular growth inhibition (converted)
Protocol: as §2

SMILES | MIC [1] | MIC [2] | MIC [3] | MIC [4] | MIC [5] | MIC [6] | MIC [7] | MIC [8] | MIC [9] | MIC [10] | MIC [11] | MIC [12] | MIC [13] | MIC [14] | MIC [15] | MIC [16] | MIC [17] | MIC [18] | MIC [19] | MIC [20] | other results
O=C(C(=O)N1CCCCC1c1c[nH]c2ccc(Br)cc12)c1c[nH]c2ccc(Br)cc12 (centres unmarked) [Compound 6d, 1-(5-Bromo-1H-indol-3-yl)-2-(2-(5-bromo-1H-indol-3-yl)piperidin-1-yl)ethane-1,2-dione] | > 128 µg/mL | 2 to 4 µg/mL (≈ 3.78 to 7.56 µM) | > 128 µg/mL | > 128 µg/mL | > 128 µg/mL | > 128 µg/mL | > 128 µg/mL | > 128 µg/mL | > 128 µg/mL | > 128 µg/mL | > 128 µg/mL | > 128 µg/mL | > 128 µg/mL | > 128 µg/mL | > 128 µg/mL | > 128 µg/mL | > 128 µg/mL | > 128 µg/mL | > 128 µg/mL | > 128 µg/mL | MIC [21]: > 128 µg/mL; MIC [22]: > 128 µg/mL; MIC [23]: > 128 µg/mL; MIC [24]: > 128 µg/mL; MIC [25]: > 128 µg/mL; inhibition at 10 µM [26]: 41 ± 4%; inhibition at 1 µM [26]: 4%; inhibition at 10 µM [27]: 53 ± 5%; inhibition at 1 µM [27]: 0%; inhibition at 10 µM [28]: 0%; inhibition at 1 µM [28]: 0%
CC(C)(C)OC(=O)N1CCN(C(=O)C(=O)c2c[nH]c3ccc(Br)cc23)C(c2c[nH]c3ccc(Br)cc23)C1 (centres unmarked) [Compound 6f, tert-Butyl 3-(5-bromo-1H-indol-3-yl)-4-(2-(5-bromo-1H-indol-3-yl)-2-oxoacetyl) piperazine-1-carboxylate] | > 128 µg/mL | 2 to 4 µg/mL (≈ 3.17 to 6.35 µM) | > 128 µg/mL | > 128 µg/mL | > 128 µg/mL | > 128 µg/mL | > 128 µg/mL | > 128 µg/mL | > 128 µg/mL | > 128 µg/mL | > 128 µg/mL | > 128 µg/mL | > 128 µg/mL | > 128 µg/mL | > 128 µg/mL | > 128 µg/mL | > 128 µg/mL | > 128 µg/mL | > 128 µg/mL | > 128 µg/mL | MIC [21]: > 128 µg/mL; MIC [22]: > 128 µg/mL; MIC [23]: > 128 µg/mL; MIC [24]: > 128 µg/mL; MIC [25]: > 128 µg/mL; inhibition at 10 µM [26]: 81 ± 2%; inhibition at 1 µM [26]: 0%; inhibition at 10 µM [27]: 92 ± 3%; inhibition at 1 µM [27]: 0%; inhibition at 10 µM [28]: 39 ± 4%; inhibition at 1 µM [28]: 0%

— patent publication US9321722B2, “Bis-indolic derivatives, their uses in particular as antibacterials” (UNIVERSITE JOSEPH FOURIER, priority 2011, dated 2016)
